Test results: paper PMC4431184, “The Use of the LanthaScreen TR-FRET CAR Coactivator Assay in the Characterization of Constitutive Androstane Receptor (CAR) Inverse Agonists” (Sensors (Basel, Switzerland), 2015)
Blank lines part the entries; values can stand above or below the compound they belong to.

Tests used:
[1] = molecular target: T1, human CAR ligand-binding domain (LBD) (Homo sapiens, UniProt Q14994); assay: LanthaScreen TR-FRET CAR Coactivator Assay; assay type: biochemical; details: for fold activation compared to vehicle control: CITCO 10 μM; for IC50: IC50 (95% Conf. Interv.), TR-FRET CAR Assay
T1 sequence (Q14994 109-352 limits assumed): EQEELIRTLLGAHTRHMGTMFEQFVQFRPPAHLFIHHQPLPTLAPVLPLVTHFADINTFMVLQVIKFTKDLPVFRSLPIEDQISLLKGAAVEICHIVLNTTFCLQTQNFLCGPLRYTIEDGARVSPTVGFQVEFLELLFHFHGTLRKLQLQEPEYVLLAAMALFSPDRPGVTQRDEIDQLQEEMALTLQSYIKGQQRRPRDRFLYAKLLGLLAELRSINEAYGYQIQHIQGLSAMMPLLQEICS
From the text: The LanthaScreen^TMTR-FRET CAR Coactivator Binding Assay (Cat. No. PV4836, now produced by Thermo) was used with slight modifications of the manufacturer’s protocol. The assay uses two fluorophores: a terbium-labeled anti-GST antibody interacting with glutathione-S-transferase (GST) tagged human CAR ligand-binding domain (LBD) and a fluorescein-labeled PGC1α coactivator peptide (Figure 1). […] Thus, this energy transfer is detected by an increase in the fluorescence emission of the acceptor (fluorescein) and a decrease in the fluorescence emission of the donor (terbium). To quantify the process, TR-FRET is expressed as a ratio of the intensities of the acceptor and donor fluorophores. […] Incubation time was optimized from 1 to 4 h at room temperature and protected from light. […] According to the recommended protocol of the manufacturer, CAR-LBD is added to the solution of test compounds, followed by the addition of a mixture of the fluorescein-coactivator peptide and terbium-labeled anti-GST antibody. In the study we also tested to determine if the order of adding the constituents in the mixture may have an influence on the sensitivity and reproducibility of the assay. […] The terbium was excited using a 340-nm excitation filter with a 30-nm bandwidth and fluorescein was excited with the first emission peak of terbium centered at 495 nm. Energy transfer to fluorescein emission (520 nm) is then measured in the silent region between the first two terbium emission peaks centered at 490 and 545 nm (see Graphical Abstract). […] Delay time was set at 100 μs and integration time 200 μs. Gains set to 100 were the use constant in all the experiments. The 520 nm/495 nm TR-FRET ratio was then calculated. […] The values above the baseline represent activation of CAR LBD-PGC1α interaction and agonistic activity of the tested ligand. The experiments were performed at least three times in quadruplicates. Data are presented as the means and S.D. from three independent experiments (n = 3). […] Dose-response curves were generated by plotting the emission TR-FRET ratio vs. the log of a ligand (in μM). To determine the half maximal inhibitory concentration (IC50) value, the data were fitted using an equation for a sigmoidal dose response inhibition (with a varying slope) using the software GraphPad™ PRISM version 6.05. Z-factors were calculated using the method of Zhang et al..

[2] = molecular target: T2, human CAR LBD (Homo sapiens, UniProt Q14994); assay: CAR LBD assembly assay (GAL4/VP16 luciferase reporter in HepG2 cells); assay type: cell-based; details: CITCO 1 µM, up to highest studied concentration 30 µM
T2 construct: encoding C (151–349 aa, helices 3–12, pCAR-C/VP16); N (103–150 aa, helix 1, pCAR-N/GAL4) terminal parts of human CAR LBD; expressed in transfected cells; host or cells: HepG2
T2 sequence (Q14994 103-150 isoform Q14994-2): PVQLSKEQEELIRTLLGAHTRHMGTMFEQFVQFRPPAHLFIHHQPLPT
T2 sequence (Q14994 151-348 isoform Q14994-2): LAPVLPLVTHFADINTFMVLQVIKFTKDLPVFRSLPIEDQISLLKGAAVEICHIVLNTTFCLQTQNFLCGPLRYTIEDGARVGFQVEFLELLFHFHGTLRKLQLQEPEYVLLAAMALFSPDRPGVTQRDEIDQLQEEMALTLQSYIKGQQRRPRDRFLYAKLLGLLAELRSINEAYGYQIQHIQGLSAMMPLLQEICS
Method: The CAR LBD assembly assay was performed according to the protocol we described in our latest report. The CAR LBD assembly assay is based on two hybrid expression constructs encoding C (151–349 aa, helices 3–12, pCAR-C/VP16) and N (103–150 aa, helix 1, pCAR-N/GAL4) terminal parts of human CAR LBD that are co-transfected together with the pGL5-luc luciferase gene reporter plasmid (Promega) containing GAL4 binding sites. When the CAR LBD interacts with a ligand (both agonist and antagonist), connection of the helix 1 to CAR LBD helices 3–12 promotes firefly luciferase activation. Thus, the assay monitor interaction of CAR LBD with ligands rather than its activation or deactivation.

effect on interaction of CAR LBD with the PGC1α coactivator ([1]; 10 μM, no CITCO): almost completely inhibited
effect on constitutive activity of CAR ([1]; 30 μM): abolish the constitutive activity of CAR
effect on CITCO-mediated CAR LBD interaction with PGC1α ([1]; 30 μM, with CITCO): completely abrogated the effect of CITCO
effect on constitutive activity of CAR ([1]; concentrations of 20 and 30 μM): abolished constitutive activity of CAR
concentration with significant inhibition of CAR LBD constitutive activity ([1]; no CITCO): 0.01 µM
Compound: Clc1ccccc1C(c1ccccc1)(c1ccccc1)n1ccnc1 [Clotrimazole, 1-[(2-Chlorophenyl)diphenylmethyl]-1H-imidazole]

Compound: Clc1ccc(-c2nc3sccn3c2C=NOCc2ccc(Cl)c(Cl)c2)cc1 [CITCO, 6-(4-Chlorophenyl)imidazo[2,1-b][1,3]thiazole-5-carbaldehyde O-(3,4-dichlorobenzyl)oxime]
fold activation compared to vehicle control ([1]; modified order: CAR-LBD and fluorescein-/terbium-labeled reagents before the agonist (Figure 2B)): 1.94 fold
fold activation compared to vehicle control ([1]; modified order: ligand, fluorescein-PGC1α and Tb antibody, then CAR-LBD (Figure 2A)): 2.26 fold
fold activation compared to vehicle control ([1]; standard procedure (Figure 2C)): 2.56 fold

Compound: C[C@]12CC[C@@H](O)C[C@@H]1CC[C@@H]1[C@@H]2CC[C@]2(C)C=CC[C@@H]12 [Androstenol, 5α-androst-16-en-3α-ol]
inhibition of the activity of CITCO [2]: weakest inhibition
inhibition of the activity of CITCO ([2]; listed as androstenol): weaker inhibition
IC50 ([1]; CITCO 1 μM, antagonist mode, with agonist CITCO 1 μM): 313 µM
IC50 ([1]; No CITCO, inverse agonist mode, reduction of CAR constitutive activity): 0.35 µM
concentration at which consistent antagonistic effect on CITCO was observed ([1]; with CITCO 1 μM): 30 µM
inhibition of CITCO-mediated CAR LBD interaction with PGC1α ([1]; with CITCO 1 μM, serial dilution): did not show any significant inhibition
